Measured values reported in patent US7183260B2, “C-terminal modified oxamyl dipeptides as inhibitors of the ICE/ced-3 family of cysteine proteases” (Idun Pharmaceuticals, Inc., priority 1998, dated 2007).
Read-outs that look alike come from different tables or passages of the source. Where a SMILES comes first, the peptide text is derived from it. The star is where a group is joined. Cbz = O=C(OCc1ccccc1)*; CH2F = FC*

Legend:
Type in all cases: biochemical
[1] = target: MCH-5 (Homo sapiens, UniProt Q14790); assay: Dissociation constant Ki and irreversible rate constant k3 for irreversible inhibitors (Mch5)
[2] = target: T1, MCH-2 (Homo sapiens, UniProt P55212); assay: Dissociation constant Ki and irreversible rate constant k3 for irreversible inhibitors (Mch2)
T1 sequence (P55212 24-179 limits assumed): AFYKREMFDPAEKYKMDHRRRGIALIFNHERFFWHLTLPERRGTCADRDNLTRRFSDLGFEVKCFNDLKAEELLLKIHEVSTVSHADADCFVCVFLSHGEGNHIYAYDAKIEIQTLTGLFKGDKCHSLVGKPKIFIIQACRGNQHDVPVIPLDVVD
T1 sequence (P55212 194-293 limits assumed): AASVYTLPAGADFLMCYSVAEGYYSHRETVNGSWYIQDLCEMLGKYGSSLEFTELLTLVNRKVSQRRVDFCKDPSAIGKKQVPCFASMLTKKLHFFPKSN

[3] = target: T2, CPP32 (Homo sapiens, UniProt P42574); assay: Dissociation constant Ki and irreversible rate constant k3 for irreversible inhibitors (CPP32)
T2 sequence (P42574 29-175 limits assumed): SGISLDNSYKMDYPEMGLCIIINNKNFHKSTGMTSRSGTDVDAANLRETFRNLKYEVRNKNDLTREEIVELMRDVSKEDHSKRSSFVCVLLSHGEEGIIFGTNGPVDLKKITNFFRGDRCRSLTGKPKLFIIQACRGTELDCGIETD
T2 sequence (P42574 176-277 limits assumed): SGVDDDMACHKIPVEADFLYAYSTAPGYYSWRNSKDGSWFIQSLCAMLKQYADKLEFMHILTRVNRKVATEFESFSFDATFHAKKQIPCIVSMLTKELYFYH

[4] = target: T3, mICE (Mus musculus, UniProt P29452); assay: Dissociation constant Ki and irreversible rate constant k3 for irreversible inhibitors (ICE)
T3 sequence (P29452 123-296 limits assumed): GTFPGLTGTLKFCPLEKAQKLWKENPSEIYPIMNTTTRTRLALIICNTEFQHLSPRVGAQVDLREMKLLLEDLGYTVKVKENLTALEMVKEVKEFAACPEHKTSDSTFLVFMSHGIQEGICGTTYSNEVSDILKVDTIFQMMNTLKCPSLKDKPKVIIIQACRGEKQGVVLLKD
T3 sequence (P29452 315-402 limits assumed): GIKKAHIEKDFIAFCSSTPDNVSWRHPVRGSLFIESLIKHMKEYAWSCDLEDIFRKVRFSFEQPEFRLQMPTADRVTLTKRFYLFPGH

[5] = continuous assay 60 min, reaction initiated by adding enzyme to substrate-inhibitor mixture

Sequence of MCH-5 (Q14790 217-374 limits assumed, species assumed): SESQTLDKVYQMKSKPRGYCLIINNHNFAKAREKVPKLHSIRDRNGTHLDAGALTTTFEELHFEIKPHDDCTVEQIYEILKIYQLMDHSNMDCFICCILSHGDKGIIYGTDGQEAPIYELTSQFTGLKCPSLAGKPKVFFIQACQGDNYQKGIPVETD
Sequence of MCH-5 (Q14790 385-479 limits assumed, species assumed): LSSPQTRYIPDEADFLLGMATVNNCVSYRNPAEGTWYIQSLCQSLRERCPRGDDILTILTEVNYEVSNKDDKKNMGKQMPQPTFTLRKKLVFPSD

Compound | Ki [1, 5] [nM] | MCH-5 k3/Ki [1, 5] | Ki [2, 5] [nM] | MCH-2 k3/Ki [2, 5] | CPP32 k3/Ki [3, 5] | Ki [3, 5] [nM] | Ki [4, 5] [nM] | mICE k3/Ki [4, 5] | Ki [1] [nM] | MCH-5 k3/Ki [1] | Ki [2] [nM] | MCH-2 k3/Ki [2] | CPP32 k3/Ki [3] | Ki [3] [nM] | Ki [4] [nM] | mICE k3/Ki [4]
CC(C)[C@H](NC(=O)C(=O)Nc1ccccc1Cc1ccccc1)C(=O)N[C@@H](CC(=O)O)C(=O)COc1c(F)c(F)cc(F)c1F [Example 84] | 24 | 105,000 moles^−1 seconds^−1 | 82 | 25,300 moles^−1 seconds^−1 | 54,800 moles^−1 seconds^−1 | 367 | 43 | 344,000 moles^−1 seconds^−1 |  |  |  |  |  |  |  | 
CC(C)[C@H](NC(=O)C(=O)Nc1ccccn1)C(=O)N[C@@H](CC(=O)O)C(=O)COc1c(F)c(F)cc(F)c1F [Example 100] | 157 | 19,500 moles^−1 seconds^−1 | 188 | 11,600 moles^−1 seconds^−1 | 9,850 moles^−1 seconds^−1 | 2250 | 206 | 36,000 moles^−1 seconds^−1 |  |  |  |  |  |  |  | 
C[C@H](NC(=O)C(=O)Nc1cccc2c1CCCC2)C(=O)N[C@@H](CC(=O)O)C(=O)COP(=O)(c1ccccc1)c1ccccc1 [Example 61] | 38 | 71,800 moles^−1 seconds^−1 | 19 | 120,000 moles^−1 seconds^−1 | 157,000 moles^−1 seconds^−1 | 69 | 23 | 315,000 moles^−1 seconds^−1 |  |  |  |  |  |  |  | 
C[C@H](NC(=O)C(=O)NCc1cccc2ccccc12)C(=O)N[C@@H](CC(=O)O)C(=O)COc1c(F)c(F)cc(F)c1F [Example 33] | 9.7 | 1,260,000 moles^−1 seconds^−1 | 16 | 335,000 moles^−1 seconds^−1 | 158,000 moles^−1 seconds^−1 | 61 | 5.6 | 2,590,000 moles^−1 seconds^−1 |  |  |  |  |  |  |  | 
CC(C)[C@H](NC(=O)C(=O)Nc1ccccc1)C(=O)N[C@@H](CC(=O)O)C(=O)COc1c(F)c(F)cc(F)c1F [Example 82] | 5 | 598,000 moles^−1 seconds^−1 | 100 | 25,500 moles^−1 seconds^−1 | 36,000 moles^−1 seconds^−1 | 389 | 7 | 1,490,000 moles^−1 seconds^−1 |  |  |  |  |  |  |  | 
C[C@H](NC(=O)C(=O)Nc1ccccc1Cl)C(=O)N[C@@H](CC(=O)O)C(=O)COC(=O)c1c(Cl)cccc1Cl [Example 42] | 4.6 | 1,630,000 moles^−1 seconds^−1 | 7 | 745,000 moles^−1 seconds^−1 | 842,000 moles^−1 seconds^−1 | 21 | 7 | 1,940,000 moles^−1 seconds^−1 |  |  |  |  |  |  |  | 
CC(C)[C@H](NC(=O)C(=O)Nc1ccccc1I)C(=O)N[C@@H](CC(=O)O)C(=O)COc1c(F)c(F)cc(F)c1F [Example 107] | 4 | 1,026,000 moles^−1 seconds^−1 | 20 | 137,000 moles^−1 seconds^−1 | 42,300 moles^−1 seconds^−1 | 510 | 7 | 1,260,000 moles^−1 seconds^−1 |  |  |  |  |  |  |  | 
CC(C)[C@H](NC(=O)C(=O)NC(c1ccccc1)c1ccccc1)C(=O)N[C@@H](CC(=O)O)C(=O)COc1c(F)c(F)cc(F)c1F [Example 81] | 36 | 48,600 moles^−1 seconds^−1 | 1150 | 1,430 moles^−1 seconds^−1 | 5,380 moles^−1 seconds^−1 | 882 | 54 | 201,000 moles^−1 seconds^−1 |  |  |  |  |  |  |  | 
CC(C)[C@H](NC(=O)C(=O)Nc1ccncc1)C(=O)N[C@@H](CC(=O)O)C(=O)COc1c(F)c(F)cc(F)c1F [Example 101] | 1550 | 1,140 moles^−1 seconds^−1 | 641 | 5,580 moles^−1 seconds^−1 | 511 mol⁻¹ s⁻¹ | 26100 | 22600 | 912 mol⁻¹ s⁻¹ |  |  |  |  |  |  |  | 
CC(C)[C@H](NC(=O)C(=O)Nc1cccc2ccccc12)C(=O)N[C@@H](CC(=O)O)C(=O)COc1c(F)cc(F)cc1F [Example 6] | 5.3 |  | 42 |  |  | 39 | 8.8 |  |  |  |  |  |  |  |  | 
C[C@H](NC(=O)C(=O)Nc1ccccc1F)C(=O)N[C@@H](CC(=O)O)C(=O)COC(=O)c1c(Cl)cccc1Cl [Example 39] | 40 | 155,000 moles^−1 seconds^−1 | 23 | 129,000 moles^−1 seconds^−1 | 68,900 moles^−1 seconds^−1 | 202 | 116 | 172,000 moles^−1 seconds^−1 |  |  |  |  |  |  |  | 
CC(NC(=O)C(NC(=O)OCc1ccccc1)C(C)C)C(=O)NC(CC(=O)O)C(=O)CF (stereo not drawn) [refer., Cbz-ValAlaAsp-CH2F, reference compound] (Cbz-Val-Ala-Asp-CH2F; configuration not given here) | 18 | 83,300 moles^−1 seconds^−1 | 594 | 2,950 moles^−1 seconds^−1 | 12,200 moles^−1 seconds^−1 | 820 | 15 | 214,000 moles^−1 seconds^−1 |  |  |  |  |  |  |  | 
C[C@H](NC(=O)C(=O)NCc1ccccc1)C(=O)N[C@@H](CC(=O)O)C(=O)COc1c(F)c(F)cc(F)c1F [Example 51] | 83 | 23,100 moles^−1 seconds^−1 | 70 | 42,800 moles^−1 seconds^−1 | 54,300 moles^−1 seconds^−1 | 370 | 1010 | 13,900 moles^−1 seconds^−1 |  |  |  |  |  |  |  | 
C[C@H](NC(=O)C(=O)Nc1ccccc1I)C(=O)N[C@@H](CC(=O)O)C(=O)COP(=O)(c1ccccc1)c1ccccc1 [Example 74] | 70 | 46,300 moles^−1 seconds^−1 | 78 | 66,200 moles^−1 seconds^−1 | 78,300 moles^−1 seconds^−1 | 161 | 303 | 36,300 moles^−1 seconds^−1 |  |  |  |  |  |  |  | 
C[C@H](NC(=O)C(=O)NCc1cccc2ccccc12)C(=O)N[C@@H](CC(=O)O)C(=O)COP(=O)(c1ccccc1)c1ccccc1 [Example 35] | 23 | 82,700 moles^−1 seconds^−1 | 11 | 186,000 moles^−1 seconds^−1 | 245,000 moles^−1 seconds^−1 | 22 | 35 | 191,000 moles^−1 seconds^−1 |  |  |  |  |  |  |  | 
C[C@H](NC(=O)C(=O)NC12CC3CC(CC(C3)C1)C2)C(=O)N[C@@H](CC(=O)O)C(=O)COP(=O)(c1ccccc1)c1ccccc1 [Example 53] |  |  |  |  |  |  |  |  | 77 | 50,400 moles^−1 seconds^−1 | 42 | 124,000 moles^−1 seconds^−1 | 149,000 moles^−1 seconds^−1 | 134 | 462 | 27,600 moles^−1 seconds^−1
